Biological target: MRCKα (Homo sapiens, UniProt Q5VT25)
Assay: HotSpot radiometric kinase assay, MRCKα
Type: biochemical
Settings: compound 0.5 μM, 10 μM ATP

Sequence of MRCKα (Q5VT25 1-473): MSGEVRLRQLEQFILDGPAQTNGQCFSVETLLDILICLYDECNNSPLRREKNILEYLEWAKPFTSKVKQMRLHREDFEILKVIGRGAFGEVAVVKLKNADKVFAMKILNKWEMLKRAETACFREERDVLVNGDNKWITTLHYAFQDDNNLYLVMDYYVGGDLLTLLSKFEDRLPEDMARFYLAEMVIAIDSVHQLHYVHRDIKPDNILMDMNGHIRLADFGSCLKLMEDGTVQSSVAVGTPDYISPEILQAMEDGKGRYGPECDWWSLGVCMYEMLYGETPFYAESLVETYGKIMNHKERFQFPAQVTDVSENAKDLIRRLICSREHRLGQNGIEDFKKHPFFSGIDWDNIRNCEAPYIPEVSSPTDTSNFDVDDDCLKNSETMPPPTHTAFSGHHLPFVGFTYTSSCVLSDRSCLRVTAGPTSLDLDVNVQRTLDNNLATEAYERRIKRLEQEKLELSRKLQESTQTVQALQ

SMILES: O=C(Nc1cccc(Nc2cc(Nc3cccc(C(F)(F)F)c3)ncn2)c1)C1CC1 [EGFR Inhibitor]
- inhibition of MRCKα (next most potent target): 22%

Reference: article PMC3230241 (Nature biotechnology, 2011)
